Measurements reported in patent US20010021705A1, “Disodium alendronate formulations” (MERCK & CO., Inc., priority 1995, published 2001).
Where a name gives a salt, the structure may show the parent alone. Read-outs that look alike come from different tables or passages of the source.

Settings: for aqueous pH: concentration not stated (summary)

SMILES | solution pH (at 50 mg/ml) | aqueous pH (Disodium Salt Monohydrate) | solution pH (at 8 mg/ml) | aqueous pH
NCCCC(O)(P(=O)(O)O)P(=O)(O)O [disodium salt, 4-Amino-1-Hydroxy-Butylidene-1,1-Bisphosphonic Acid Disodium Salt Monohydrate] | 8.7 | about 8.7 | – | –
NCCCC(O)(P(=O)(O)O)P(=O)(O)O [free acid, 4-amino-1-hydroxybutylidene-1,1-bisphosphonic acid] | – | – | 2.2 | about 2.2
